In patent publication US9874563B2, “Detecting and quantifying cryptic HIV replication” (UNIVERSITY OF DELAWARE, priority 2012, dated 2018):
“And” between values parts separate entries of the source, which are not always exact repeats. Identical values can stand only once.

Experiments:
HIV 2-LTR circles = conditions: cited from earlier work
HIV [1] = test: Model fit of 2-LTR dynamics following raltegravir intensification (nonlinear mixed-effects, Bayesian MCMC); parameters: species or system human
Text: Previous work has been done on identifying HIV model parameters from experiments involving the use of integrase inhibitors. These models, however, considered only standard viral load measurements, not measurements of 2-LTR circle frequency. We introduce a simple model of the dynamics of the concentrations of actively infected cells y(t) and cells containing 2-LTR episomes c(t) in the site of episome formation. We model the behavior both in the absence of raltegravir uII=0 and in the presence of raltegravir uII=1.
The reproductive ratio of the virus prior to raltegravir intensification is R, and the reproductive ratio after raltegravir intensification is (1−ηII)R, where ηII is the effectiveness of raltegravir at interrupting infection events that would otherwise have occurred without intensification. The reproductive ratios are defined as the average number of infected cells created per infected cell in a single generation. If the virus was replicating efficiently prior to intensification (R0>1), then the measured R would be approximately equal to 1 at equilibrium, as the efficient replication would necessarily be target cell limited. If the infection is controlled prior to intensification (R0<1), then the measured reproductive ratio R will be approximately equal to R0.
2-LTR circles may also be formed at an integrase inhibitor-enhanced rate in the presence of raltegravir. The rate at which infection events are interrupted by raltegravir after intensification is ηIIRay which, when multiplied by the probability 0<kII<1 that the interruption of an infection even leads to the formation of a 2-LTR episome, gives us the rate of integrase inhibitor-enhances 2-LTR formation kIIηIIRay. φ≧0 is the ratio between the intrinsic rate and the raltegravir-enhanced rate of 2-LTR formation.
These dynamics can be written in the form of Equation 1: y=−(1−(1−ηIIuII)R)ay+ye ċ=φkII(1−ηIIuII)Ray+kIIηIIuIIRay−δc (1)
To reduce the parametric covariance, we introduced a re-parametrized parameter A=kIIye/δ to replace kIIye. […]
The posterior distribution of the parameter likelihood given the measured 2-LTR values was computed using a Bayesian Markov-Chain Monte-Carlo method with Gibbs Sampling, as in References 56, 75, 78 and 79 with noninformative prior distributions for the parameters as follows:
Markov-Chain Monte-Carlo methods were used to fit Equation 5 to the experimental data for 13 patients, with shared parameters {θ, δ} and patient-specific parameters {R; ηII, kIIye}, using the measurement uncertainty model described in the Materials and Methods section. […] The maximum-likelihood predicted 2-LTR concentrations for each patient, together with the 95% prediction interval, is shown compared to the measured data in FIG. 3.

HIV [2] = conditions: duration of the experiment; 13 patients of the experimental group; cited from earlier work

Cc1nnc(C(=O)NC(C)(C)c2nc(C(=O)NCc3ccc(F)cc3)c(O)c(=O)n2C)o1 [raltegravir]
patients with 2-LTR containing cells observed (HIV 2-LTR circles; HAART intensified by raltegravir for 48 weeks, experimental group of 45): 13/45 and 13 of the 45
2-LTR quantification, Week Post-Intensification 0 (HIV 2-LTR circles; week 0 (baseline at start of raltegravir intensification), individual HAART-suppressed patients, one table row per patient, censoring limit 1.20): <1.20 2-LTR per 10^6 PBMC (7×) and 1.76 2-LTR per 10^6 PBMC and 38.62 2-LTR per 10^6 PBMC and 35.30 2-LTR per 10^6 PBMC and 9.98 2-LTR per 10^6 PBMC and 2.99 2-LTR per 10^6 PBMC
2-LTR quantification, Week Post-Intensification 2 (HIV 2-LTR circles; week 2 of raltegravir intensification, individual patients, one table row per patient, censoring limit 1.20): 21.47 2-LTR per 10^6 PBMC and 48.16 2-LTR per 10^6 PBMC and 72.77 2-LTR per 10^6 PBMC and 30.55 2-LTR per 10^6 PBMC and 5.84 2-LTR per 10^6 PBMC and 12.98 2-LTR per 10^6 PBMC and 3.05 2-LTR per 10^6 PBMC and <1.20 2-LTR per 10^6 PBMC (4×) and 23.69 2-LTR per 10^6 PBMC and 1.98 2-LTR per 10^6 PBMC
2-LTR quantification, Week Post-Intensification 4 (HIV 2-LTR circles; week 4 of raltegravir intensification, individual patients, one table row per patient, censoring limit 1.20): <1.20 2-LTR per 10^6 PBMC (3×) and 9.07 2-LTR per 10^6 PBMC and 5.37 2-LTR per 10^6 PBMC and 13.42 2-LTR per 10^6 PBMC and 3.19 2-LTR per 10^6 PBMC and 2.68 2-LTR per 10^6 PBMC and 24.75 2-LTR per 10^6 PBMC and 21.07 2-LTR per 10^6 PBMC and 3.03 2-LTR per 10^6 PBMC
2-LTR quantification, Week Post-Intensification 12 (HIV 2-LTR circles; week 12 of raltegravir intensification, individual patients, one table row per patient, censoring limit 1.20): 10.38 2-LTR per 10^6 PBMC and 7.38 2-LTR per 10^6 PBMC and 1.26 2-LTR per 10^6 PBMC and <1.20 2-LTR per 10^6 PBMC (4×) and 1.61 2-LTR per 10^6 PBMC and 9.55 2-LTR per 10^6 PBMC and 39.64 2-LTR per 10^6 PBMC and 30.11 2-LTR per 10^6 PBMC
2-LTR quantification, Week Post-Intensification 24 (HIV 2-LTR circles; week 24 of raltegravir intensification, individual patients, one table row per patient, censoring limit 1.20): 2.73 2-LTR per 10^6 PBMC and 2.20 2-LTR per 10^6 PBMC and <1.20 2-LTR per 10^6 PBMC (8×) and 1.88 2-LTR per 10^6 PBMC and 1.29 2-LTR per 10^6 PBMC
2-LTR quantification, Week Post-Intensification 48 (HIV 2-LTR circles; week 48 of raltegravir intensification, individual patients, one table row per patient, censoring limit 1.20): <1.20 2-LTR per 10^6 PBMC (9×) and 7.04 2-LTR per 10^6 PBMC
effect on level of cryptic replication (HIV [1]; addition of raltegravir to HAART, interpretation of the 2-LTR data): reduces the level of cryptic replication to undetectable levels
increase in likelihood of 2-LTR formation when raltegravir interrupts integration (HIV [1]; from 95% credible interval of φ): 250-1000 times
ηII (ratio-reduction in R following raltegravir intensification; drug efficacy of raltegravir), MLE (HIV [1]; maximum likelihood (posterior mode), patient-specific fitted parameter, one table row per patient): 0.01 (3×) and 0.19 and 0.02 and 0.49 and 0.77 and 0.05 and 0.03 and 0.79 and 0.81 and 0.99 and 0.08
ηII (ratio-reduction in R following raltegravir intensification; drug efficacy of raltegravir), Median (HIV [1]; posterior median, patient-specific fitted parameter, one table row per patient): 0.78 and 0.21 and 0.02 and 0.53 (3×) and 0.74 and 0.38 and 0.04 and 0.39 and 0.50 and 0.55 and 0.12
plasma viral load (HIV [2]): remained below the standard limit of detection
